Reference: ChEMBL document CHEMBL3400060, “Nucleobase modified neamines with a lysine as a linker, their inhibition specificity for TAR-Tat derived from HIV-1” (Bioorg Med Chem, 2015)

Tests used:
[1] = Binding affinity to HIV-1 RRE RNA by fluorescence anisotropy; parameters: species or system Human immunodeficiency virus 1
[2] = molecular target: Nucleic Acid; assay: Binding affinity to HIV-1 TAR RNA by FRET assay; type: nucleic-acid assay, Human immunodeficiency virus 1

Compound | Kd [1] | Kd [2]
NCCCC[C@H](N)C(=O)NC[C@H]1O[C@H](O[C@H]2[C@H](O)[C@@H](O)[C@H](N)C[C@@H]2N)[C@H](N)[C@@H](O)[C@@H]1O | 5700 nM | –
Cc1cn(CC(=O)NCCCC[C@H](N)C(=O)NC[C@H]2O[C@H](O[C@H]3[C@H](O)[C@@H](O)[C@H](N)C[C@@H]3N)[C@H](N)[C@@H](O)[C@@H]2O)c(=O)[nH]c1=O | 570 nM | 860 nM
NC[C@H]1O[C@H](O[C@H]2[C@H](O)[C@@H](O)[C@H](N)C[C@@H]2N)[C@H](N)[C@@H](O)[C@@H]1O [NEAMINE] | 5400 nM | –

Now from value to compound:

Kd [1] | Kd [2] | Compound
570 nM | 740 nM | Nc1ncnc2c1ncn2CC(=O)NCCCC[C@H](N)C(=O)NC[C@H]1O[C@H](O[C@H]2[C@H](O)[C@@H](O)[C@H](N)C[C@@H]2N)[C@H](N)[C@@H](O)[C@@H]1O
640 nM | 1400 nM | Nc1ccn(CC(=O)NCCCC[C@H](N)C(=O)NC[C@H]2O[C@H](O[C@H]3[C@H](O)[C@@H](O)[C@H](N)C[C@@H]3N)[C@H](N)[C@@H](O)[C@@H]2O)c(=O)n1
530 nM | 240 nM | Nc1nc2c(ncn2CC(=O)NCCCC[C@H](N)C(=O)NC[C@H]2O[C@H](O[C@H]3[C@H](O)[C@@H](O)[C@H](N)C[C@@H]3N)[C@H](N)[C@@H](O)[C@@H]2O)c(=O)[nH]1
